Structures can show the parent of a compound that is named as a salt. Where two headings read alike, the source gives them in different places.

The test system of assay [1] is MYB mRNA. Nature of the assay: Splicing RT-qPCR assay, MYB canonical (CJ) and alternative (AJ) junction mRNA. Conditions: Homo sapiens; for IC50: canonical junction mRNA; for AC50: alternative junction mRNA, read-out: MYB AJ (AC50, increase in AJ mRNA). The format is cell-based, human. The procedure, abridged:
(§1)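 A673 or K562 cells were treated for 24 h at 37 °C with an 11-point 3-fold compound dilution series (top final 10 uM, DMSO ≤0.25%). Lysates then went to one-step TaqMan RT-qPCR quantifying canonical (CJ) and alternative-exon (AJ) junction transcripts, normalized to a housekeeping gene.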
(In general: Quantitative PCR measures a nucleic acid by following its amplification.)

The test system of assay [2] is HTT mRNA. The assay is described as follows: Splicing RT-qPCR assay, HTT canonical (CJ) and alternative (AJ) junction mRNA. Type of assay: cell-based, human. The conditions noted are these: Homo sapiens; for IC50: canonical junction mRNA; for AC50: alternative junction mRNA, read-out: HTT AJ (AC50, increase in AJ mRNA). In short, it runs like this: as §1
The mark [3] stands for this setting: qPCR panel, read-out: MYB CJ (decrease in CJ mRNA levels, IC50).
The mark [4] stands for this setting: RT-qPCR, A673 or K562 cells, 24 hours treatment.
Setting [5] is: RT-qPCR, A673 or K562 cells, 24 hours treatment, read-out: MYB CJ (IC50, decrease in CJ mRNA).
The mark [6] stands for this setting: 24 h, RT-qPCR, A673 or K562 cells, 24 hours treatment, read-out: HTT CJ (IC50, decrease in CJ mRNA).
[7] abbreviates: qPCR panel, read-out: HTT CJ (decrease in CJ mRNA levels, IC50).

In the case of `Cc1cn2nc(-c3ccc4cc(NC5CCNCC5)cnc4n3)cc(C)c2n1` [Compound 210, 7-{2,8-dimethylimidazo[1,2-b]pyridazin-6-yl}-N-(piperidin-4-yl)-1,8-naphthyridin-3-amine; trifluoroacetic acid], the IC50 in assay [1] (setting [3]), in assay [1] (setting [5]), in assay [2] (setting [6]) and in assay [2] (setting [7]) was 1000 to 10000 nM throughout. Moreover, the AC50 in assay [1] (setting [4]) and in assay [2] (setting [4]) was 1000 to 10000 nM throughout.
With `CN[C@@H]1CCN(c2cnc3nc(-c4cc5cn(C)nc5c(C)c4O)nc(OC)c3c2)C1` [Compound 211, 5-{4-methoxy-6-[(3R)-3-(methylamino)pyrrolidin-1-yl]pyrido[2,3-d]pyrimidin-2-yl}-2,7-dimethylindazol-6-ol], the IC50 in assay [1] (setting [3]), in assay [1] (setting [5]), in assay [2] (setting [6]) and in assay [2] (setting [7]) was less than 100 nM in each case. Also, the AC50 in assay [1] (setting [4]) and in assay [2] (setting [4]) was less than 100 nM each time.
For `CN[C@H]1CCN(c2cnc3nc(-c4cc5cn(C)nc5c(C)c4O)nc(OC)c3c2)C1` [Compound 212, 5-{4-methoxy-6-[(3S)-3-(methylamino)pyrrolidin-1-yl]pyrido[2,3-d]pyrimidin-2-yl}-2,7-dimethylindazol-6-ol], the IC50 in assay [1] (setting [3]), in assay [1] (setting [5]), in assay [2] (setting [6]) and in assay [2] (setting [7]) was less than 100 nM throughout. Further, the values for the AC50 in assay [1] (setting [4]) and in assay [2] (setting [4]) were less than 100 nM and 100 to 1000 nM, respectively.
As for `CNC1CCN(c2cnc3nc(-c4cc5cn(C)nc5cc4O)cc(Cl)c3c2)C1` (stereo not drawn) [Compound 213, 5-{4-chloro-6-[3-(methylamino)370pyrrolidine-1-yl]-1,8-naphthyridin-2-yl}-2-methylindazol-6-ol], the IC50 in assay [1] (setting [3]) was less than 100 nM; in assay [1] (setting [5]) it was less than 100 nM; in assay [2] (setting [6]), 100 to 1000 nM; in assay [2] (setting [7]), 100 to 1000 nM. In addition, the AC50 in assay [1] (setting [4]) was less than 100 nM; in assay [2] (setting [4]), 100 to 1000 nM.
`Cc1c(O)c(-c2ncc3cc(N4C[C@@H](C)N[C@@H](C)C4)cnc3n2)cc2cn(C)nc12` [Compound 214]: the IC50 in assay [1] (setting [3]), in assay [1] (setting [5]), in assay [2] (setting [6]) and in assay [2] (setting [7]) was 100 to 1000 nM in each case. The values for the AC50 in assay [1] (setting [4]) and in assay [2] (setting [4]) were 100 to 1000 nM and 1000 to 10000 nM, respectively.
For the compound `C[C@@H]1CN(c2cnc3nc(-c4cc(F)c5nn(C)cc5c4)cc(Cl)c3c2)C[C@H](C)N1` [Compound 215], the IC50 lay in the range of 100 to 1000 nM in assay [1] (setting [3]), 100 to 1000 nM in assay [1] (setting [5]), 1000 to 10000 nM in assay [2] (setting [6]) and 1000 to 10000 nM in assay [2] (setting [7]). The AC50 in assay [1] (setting [4]) lay within 100 to 1000 nM; in assay [2] (setting [4]) it was 1000 to 10000 nM.
As for `Cn1cc2cc(-c3cc(Cl)c4cc(N5CCN6CCCC6C5)cnc4n3)cc(F)c2n1` (stereo not drawn) [Compound 216, 4-chloro-2-(7-fluoro-2-methylindazol-5-yl)-6-{hexahydro-1H-pyrrolo[1,2-a]pyrazin-2-yl}-1,8-naphthyridine trifluoroacetic acid], the IC50 in assay [1] (setting [3]) lay in the range of 100 to 1000 nM; in assay [1] (setting [5]) it was 100 to 1000 nM; in assay [2] (setting [6]), 1000 to 10000 nM; in assay [2] (setting [7]), 1000 to 10000 nM. Besides, the AC50 in assay [1] (setting [4]) was in the range of 100 to 1000 nM; in assay [2] (setting [4]), 1000 to 10000 nM.
Turning to `Cc1c(O)c(-c2cc(-c3ccccn3)c3cc(N4C[C@@H](C)N[C@@H](C)C4)cnc3n2)cc2cn(C)nc12` [Compound 217, 5-{6-[(3R,5S)-3,5-dimethylpiperazin-1-yl]-4-(pyridin-2-yl)-1,8-naphthyridin-2-yl}-2,7-dimethylindazol-6-ol], the IC50 in assay [1] (setting [3]), in assay [1] (setting [5]), in assay [2] (setting [6]) and in assay [2] (setting [7]) was more than 10000 nM throughout. Moreover, the AC50 in assay [1] (setting [4]) and in assay [2] (setting [4]) was more than 10000 nM throughout.
For `COc1nc(-c2cc3cn(C)nc3c(F)c2O)nc2ncc(N3C[C@@H](C)N[C@@H](C)C3)cc12` [Compound 218], the IC50 in assay [1] (setting [3]), in assay [1] (setting [5]), in assay [2] (setting [6]) and in assay [2] (setting [7]) was less than 100 nM in each case. The AC50 in assay [1] (setting [4]) is less than 100 nM; in assay [2] (setting [4]) it was 100 to 1000 nM.
In the case of `COc1nc(-c2cc3cn(C)nc3c(F)c2O)nc2ncc(N3CCC(N(C)C)CC3)cc12` [Compound 219, 5-{6-[4-(dimethylamino)piperidin-1-yl]-4-methoxypyrido[2,3-d]pyrimidin-2-yl}-7-fluoro-2-methylindazol-6-ol], the IC50 in assay [1] (setting [3]), in assay [1] (setting [5]), in assay [2] (setting [6]) and in assay [2] (setting [7]) was less than 100 nM throughout. Moreover, the AC50 is less than 100 nM in assay [1] (setting [4]) and 100 to 1000 nM in assay [2] (setting [4]).
As to `CN(C)[C@@H]1CCN(c2cnc3nc(-c4cc5cn(C)nc5c(F)c4O)cc(Cl)c3c2)C1` [Compound 220], the IC50 in assay [1] (setting [3]), in assay [1] (setting [5]), in assay [2] (setting [6]) and in assay [2] (setting [7]) was less than 100 nM throughout. In addition, the AC50 is less than 100 nM in assay [1] (setting [4]) and 100 to 1000 nM in assay [2] (setting [4]).
As to `CN(C)[C@H]1CCN(c2cnc3nc(-c4cc5cn(C)nc5c(F)c4O)cc(Cl)c3c2)C1` [Compound 221], the IC50 in assay [1] (setting [3]), in assay [1] (setting [5]), in assay [2] (setting [6]) and in assay [2] (setting [7]) was less than 100 nM in each case. Also, the AC50 was less than 100 nM in assay [1] (setting [4]) and 100 to 1000 nM in assay [2] (setting [4]).
Turning to `C[C@H]1CN(c2cnc3nc(-c4cc5cn(C)nc5cc4O)cc(Cl)c3c2)C[C@H](C)N1` [Compound 242], the IC50 in assay [1] (setting [3]) is less than 100 nM; in assay [1] (setting [5]) it was less than 100 nM; in assay [2] (setting [6]), 100 to 1000 nM; in assay [2] (setting [7]) it was 100 to 1000 nM. Also, the AC50 in assay [1] (setting [4]) is less than 100 nM; in assay [2] (setting [4]) it was 100 to 1000 nM.
In the case of `C[C@@H]1CN(c2cnc3nc(-c4cc5cn(C)nc5cc4O)cc(Cl)c3c2)C[C@@H](C)N1` [Compound 243, 5-{4-chloro-6-[(3R,5R)-3,5-dimethylpiperazin-1-yl]-1,8-naphthyridin-2-yl}-2-methylindazol-6-ol hydrochloride], the IC50 in assay [1] (setting [3]) lay in the range of 100 to 1000 nM; in assay [1] (setting [5]) it was 100 to 1000 nM; in assay [2] (setting [6]) it was 1000 to 10000 nM; in assay [2] (setting [7]), 1000 to 10000 nM. Besides, the results for the AC50 in assay [1] (setting [4]) and in assay [2] (setting [4]) were 100 to 1000 nM and 1000 to 10000 nM, respectively.
Regarding `C[C@H]1CN(c2cnc3nc(-c4cc(F)c5nn(C)cc5c4)cc(Cl)c3c2)C[C@H](C)N1` [Compound 250], the IC50 in assay [1] (setting [3]) was less than 100 nM; in assay [1] (setting [5]), less than 100 nM; in assay [2] (setting [6]), 100 to 1000 nM; in assay [2] (setting [7]) it was 100 to 1000 nM. Moreover, the AC50 in assay [1] (setting [4]) was less than 100 nM; in assay [2] (setting [4]), 100 to 1000 nM.
As for `C[C@@H]1CN(c2cnc3nc(-c4cc(F)c5nn(C)cc5c4)cc(Cl)c3c2)C[C@@H](C)N1` [Compound 251], the IC50 in assay [1] (setting [3]) is 100 to 1000 nM; in assay [1] (setting [5]), 100 to 1000 nM; in assay [2] (setting [6]) it was 1000 to 10000 nM; in assay [2] (setting [7]) it was 1000 to 10000 nM. For the same compound, the AC50 was in the range of 100 to 1000 nM in assay [1] (setting [4]) and 1000 to 10000 nM in assay [2] (setting [4]).
`Cc1c(O)c(-c2cc(-c3nnc[nH]3)c3cc(N4C[C@@H](C)N[C@@H](C)C4)cnc3n2)cc2cn(C)nc12` [Compound 261, 5-{6-[(3R,5S)-3,5-dimethylpiperazin-1-yl]-4-(4H-1,2,4-triazol-3-yl)-1,8-naphthyridin-2-yl}-2,7-dimethylindazol-6-ol]: the IC50 is less than 100 nM in assay [1] (setting [3]), 1000 to 10000 nM in assay [1] (setting [5]), more than 10000 nM in assay [2] (setting [6]) and less than 100 nM in assay [2] (setting [7]). For the same compound, the concentration at half-maximal activity (AC50) in assay [1] (setting [4]) and in assay [2] (setting [4]) was more than 10000 nM throughout.
Turning to `C[C@@H]1CN(c2cnc3nc(-c4cc5cn(C)nc5c(F)c4O)cc(C#N)c3c2)C[C@H](C)N1` [Compound 266, 6-[(3R,5S)-3,5-dimethylpiperazin-1-yl]-2-(7-fluoro-6-hydroxy-2-methylindazol-5-yl)-1,8-naphthyridine-4-carbonitrile hydrochloride], the IC50 in assay [1] (setting [3]) is less than 100 nM; in assay [1] (setting [5]), less than 100 nM; in assay [2] (setting [6]) it was 100 to 1000 nM; in assay [2] (setting [7]), 100 to 1000 nM. The concentration at half-maximal activity (AC50) in assay [1] (setting [4]) lay in the range of 100 to 1000 nM; in assay [2] (setting [4]), 1000 to 10000 nM.
`CN[C@@H]1CCN(c2cnc3nc(-c4cc5cn(C)nc5c(F)c4O)cc(Cl)c3c2)C1` [Compound 271]: the IC50 in assay [1] (setting [3]), in assay [1] (setting [5]), in assay [2] (setting [6]) and in assay [2] (setting [7]) was less than 100 nM each time. Moreover, the AC50 in assay [1] (setting [4]) and in assay [2] (setting [4]) was less than 100 nM each time.

Broadly, the IC50 is the concentration that inhibits the measured activity by half. One may read the AC50 as the concentration at which the activity in the assay is half-maximal.

(Values after patent US20250326748A1, “COMPOUNDS AND METHODS FOR MODULATING SPLICING” (REMIX THERAPEUTICS INC., priority 2022, published 2025).)
